In patent US20100240074A1 (priority 2007, published 2010):

Legend:
Format in all cases: cell-based, Saccharomyces cerevisiae
[1] = tested on: MATa-type super barrier-free YKO strains; assay: Cycloheximide sensitivity of MATa-type super barrier-free YKO strains; conditions: cycloheximide 25 ng/ml; all strains
Experimental: Instead of picking up the entire grown colonies with the 96-pin replicator, the grown colonies were picked up one by one (1 colony/strain) with a toothpick to transfer it onto new MATa selection agar medium, and culture at 30° C. for 7 days. Grown cells were picked up with a disposable 96-pin replicator, suspended in 100 μl of MATa selection liquid medium, and cultured at 25° C. for 2 to 7 days. Subsequently, the grown cells were transferred to a 384-well plate using a dispenser robot SHOTMASTER 3000.

[2] = tested on: barrier-free yeast; assay: Cycloheximide sensitivity of barrier-free yeast; conditions: cycloheximide 50 ng/ml
[3] = tested on: partner strain for barrier-free YKO (BF:KE458); assay: Evaluation of sensitivity to lovastatin (area score, ARS), barrier-free partner strain
Experimental: (§1) A lovastatin solution was added to a 96-well plate such that the concentration of lovastatin (Sigma-Aldrich, #M2147) was within the range of from 0.39 μM to 100 μM. A parent strain (WT:BY4742, Open Biosystems, #YSC1049) a partner strain for barrier-free YKO (BF:KE458), and a partner strain for super barrier-free YKO (SBF:KE513), which had been subjected to static culture at room temperature for 2 days, were added to the plate such that the final cell number was at a 2000-fold dilution, and then subjected to static culture at 30° C.
(§2) Thereafter, light absorbance thereof at 620 nm was measured over time using a plate reader (SUNRISE, manufactured by Tecan) for 48 hours. Calculation of the cell proliferation inhibiting activity was carried out using the area score method (ARS) described in Japanese Patent Application Laid-Open No. 2006-141298. In ARS, a larger value indicates a greater cell proliferation inhibiting activity.

[4] = tested on: super barrier-free YKO (SBF-YKO) knockout strains; assay: Identification of target molecule using super barrier-free YKO (sensitivity ranking by area score); conditions: lovastatin 3.125 μM
Experimental: Identification of a target molecule of lovastatin was conducted using the super barrier-free YKO (SBF-YKO) composed of 4,044 strains prepared as above. The SBF-YKO strains were inoculated into twelve 384-well plates (1 strain/well) in an ordered manner, and subjected to 3 to 7 days of static culture to equalize the number of cells across all strains. The cells were diluted 196-fold, thereby obtaining a cell dilution.
On the other hand, 384-well plates in which 20 μl of YPAD medium containing 3.9 μM lovastatin was added to each well, and 384-well plates in which 20 μl of lovastatin-free YPAD medium was added to each well were prepared. 5 μl of the obtained cell dilution was added to each well. By this operation, the cells were diluted 1000-fold and the compound concentration was adjusted to 3.125 μM.
(§3) These cells were cultured at 25° C., and light absorbance thereof at 650 nm was measured over time using a plate reader (SPECTRAMAX340PC384, Molecular Devices) from about 22 hours to 48 hours after the beginning of the culture. The area scores (ARS) were calculated based on the obtained data, thereby ranking the sensitivity.
In the same manner as in Example 6, identification of a target molecule of rapamycin was conducted using super barrier-free YKO (SBF-YKO). Each of the SBF-YKO strains was subjected to 3 to 7 days of static culture to equalize the number of cells across all strains. […]

[5] = tested on: commercially available YKO (Invitrogen, #95401.H2) knockout strains; assay: Identification of target molecule using commercially available YKO collection (sensitivity ranking by area score)
Experimental: Identification of a target molecule of lovastatin was conducted in the same manner as in Example 7, except that commercially available YKO (Invitrogen, #95401.H2) composed of 4,847 strains was used instead of BF-YKO.
Identification of a target molecule of rapamycin was conducted in the same manner as in Example 9, except that commercially available YKO (Invitrogen, #95401.H2) composed of 4,847 strains was used instead of SBF-YKO and that the compound concentrations were changed to 10 nM, 12.5 nM and 15 nM.

[6] = tested on: parent strain (WT:BY4742); assay: Evaluation of sensitivity to lovastatin (area score, ARS), parent strain; conditions: lovastatin concentration 100 μM, FIG. 4
Experimental: as §1, §2

[7] = tested on: partner strain for super barrier-free YKO (SBF:KE513); assay: Evaluation of sensitivity to lovastatin (area score, ARS), super barrier-free partner strain
Experimental: as §1, §2

[8] = tested on: barrier-free YKO (BF-YKO) knockout strains; assay: Identification of target molecule using barrier-free YKO (sensitivity ranking by area score)
Experimental: Using the barrier-free YKO (BF-YKO) composed of 3,011 strains as prepared above, a target molecule of lovastatin was identified. The strains of BF-YKO were inoculated into twelve 384-well plates (1 strain/well) in an ordered manner. The static culture was performed for 3 to 7 days to equalize the number of cells across all strains. The cells were diluted 196-fold, thereby obtaining a cell dilution.
On the other hand, 384-well plates wherein 20 μl of YPAD medium containing 3.9 μM, 7.8 μM or 15.6 μM lovastatin was added to each well, and 384-well plates in which 20 μl of lovastatin-free YPAD medium was added to each well were prepared. 5 μl of the obtained cell dilution was added to each well. By this operation, the cells were diluted 1000-fold and the respective concentrations of the compound were adjusted to 3.125 μM, 6.25 μM and 12.5 μM.
as §3

[9] = tested on: barrier-free strain (BF:KE457); assay: Evaluation of sensitivity to rapamycin (area score, ARS), barrier-free strain; conditions: FIG. 5
Experimental: (§4) In the same manner as in Example 5, to confirm drug sensitivity of the barrier-free YKO (BF-YKO) and super barrier-free YKO (SBF-YKO), changes in sensitivity of the yeasts caused by the proliferation inhibiting effect of rapamycin were examined using a parent strain and a partner strain.
(§5) A rapamycin solution was added to a 96-well plate such that the concentration of rapamycin (Sigma-Aldrich, #R0395) was varied within the range of from 0.2 nM to 50 nM. A parent strain (WT:BY4741, Open Biosystems, #YSC1048), a barrier-free strain (BF:KE457), and a super barrier-free strain (SBF:KE477), which had been subjected to static culture at room temperature for 2 days, were added such that the final cell numbers was at a 1000-fold dilution, and then subjected to static culture at 30° C.
as §2

[10] = tested on: parent strain (WT:BY4741); assay: Evaluation of sensitivity to rapamycin (area score, ARS), parent strain; conditions: FIG. 5
Experimental: as §4, §5, §2

[11] = tested on: super barrier-free strain (SBF:KE477); assay: Evaluation of sensitivity to rapamycin (area score, ARS), super barrier-free strain
Experimental: as §4, §5, §2

[12] = based on lovastatin concentrations at which an area score of about 10 was obtained

C[C@@H]1C[C@@H]([C@H](O)CC2CC(=O)NC(=O)C2)C(=O)[C@@H](C)C1 [cycloheximide]
growth in the presence of cycloheximide [1]: could not grow
growth in the presence of cycloheximide [2]: cannot grow

CC[C@H](C)C(=O)O[C@H]1C[C@@H](C)C=C2C=C[C@H](C)[C@H](CC[C@@H]3C[C@@H](O)CC(=O)O3)[C@H]21 [lovastatin]
concentration at which maximum inhibiting activity was exhibited ([3]; FIG. 4): 50 µM
sensitization relative to the WT strain [3, 12]: 8 times
sensitivity of BTS1-knockout strain [4]: most sensitive knockout strain
sensitivity of HMG1 gene knockout strain [4]: high sensitivity
sensitivity of HMG1 gene knockout strain ([5]; lovastatin 3.125 μM): not found as a strain exhibiting sensitivity
sensitivity of BTS1-knockout strain ([5]; lovastatin 3.125 μM and 12.5 μM): not found as a strain exhibiting sensitivity
sensitivity of HMG1 gene knockout strain ([5]; lovastatin 12.5 μM): not found as a strain exhibiting sensitivity
cell proliferation inhibiting effect [6]: only a slight cell proliferation inhibiting effect
concentration at which maximum inhibiting activity was exhibited ([7]; FIG. 4): 25 µM
sensitization relative to the WT strain [7, 12]: 16 times
sensitivity of HMG1 gene knockout strain ([8]; lovastatin 6.25 μM): high sensitivity
sensitivity of HMG1 gene knockout strain ([8]; lovastatin 12.5 μM): high sensitivity

CO[C@H]1C[C@@H]2CC[C@@H](C)[C@@](O)(O2)C(=O)C(=O)N2CCCC[C@H]2C(=O)O[C@H]([C@H](C)C[C@@H]2CC[C@@H](O)[C@H](OC)C2)CC(=O)[C@H](C)/C=C(\C)[C@@H](O)[C@@H](OC)C(=O)[C@H](C)C[C@H](C)/C=C/C=C/C=C/1C [rapamycin]
concentration at which maximum cell proliferation inhibiting effect was observed [9]: 50 nM
concentration at which maximum cell proliferation inhibiting effect was observed [10]: 50 nM
concentration at which maximum effect was exhibited ([11]; FIG. 5): 6.25 nM
sensitization relative to the WT strain ([11]; based on rapamycin concentrations at which an area score of about 10 was obtained): 8 times
